Measurements: patent US11084826B2, “RSV antiviral pyrazolo- and triazolo-pyrimidine compounds” (Janssen Sciences Ireland Unlimited Company, priority 2015, dated 2021)

Experiments:
[1] = Cytotoxicity in HeLa cells, ATP content measured with the ATPlite kit; type: cell-based; settings: human, TOX HELA pCC50
rgRSV224 virus = experiment: Antiviral activity: inhibition of rgRSV224 (GFP-expressing RSV) replication in HeLa cells, GFP expression read-out; type: cell-based, respiratory syncytial virus (RSV); settings: human respiratory syncytial virus, HeLa, read-out: RSV HELA pEC50, rgRSV224 virus (MOI=1) in HeLa cells, GFP read-out (converted)
Method in brief: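 EC50 is the 50% inhibitory concentration for GFP expression, read by laser microscopy three days after rgRSV224 infection (MOI=1) of HeLa cells (3,000/well). Compounds were tested as 9 serial 4-fold dilutions at 0.05% DMSO, and cells were incubated at 37° C under 5% CO2.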

CCc1cc(C(=O)N2CCc3ccccc3[C@H]2C)nc2cc(-c3ccc(N4CC[C@H](C(=O)O)C4)cc3F)nn12 [Compound W28]
CC50 at 3 days [1]: 51.3 µM
EC50 (rgRSV224 virus): 4.27 nM
melting point: 218.99 °C

CC1c2ccsc2CCN1C(=O)c1cc(C2CC2)n2nc(-c3ccc(-n4cc(C(=O)O)cn4)cc3F)cc2n1 (stereo not drawn) [Compound W41]
CC50 at 3 days [1]: > 25.1 µM
EC50 (rgRSV224 virus): 13.2 nM
melting point: 257.83 °C

C[C@@H]1CCCCCN1C(=O)c1cc(C2(C)CC2)n2nc(-c3ccc4cc(C(=O)O)c(=O)oc4c3F)cc2n1 (racemic) [Compound F49]
CC50 at 3 days [1]: 57.5 µM
EC50 (rgRSV224 virus): 26.3 nM
melting point: 218.14 °C

CC(C)Cc1cc(C(=O)N2CCCCC[C@H]2C)nc2cc(-c3cccc(/C=C/C(=O)O)c3F)nn12 [Compound M29]
CC50 at 3 days [1]: 67.6 µM
EC50 (rgRSV224 virus): 38.9 nM
melting point: 176 °C

CCc1cc(C(=O)N2CCCCC[C@H]2C)nc2cc(-c3ccc4c(c3F)OC[C@@H](C(=O)O)C4)nn12 (racemic) [Compound F65]
CC50 at 3 days [1]: > 100 µM
EC50 (rgRSV224 virus): 141 nM
melting point: 186.2 °C

C[C@@H]1CCCCCN1C(=O)c1cc(C2CCC2)n2nc(-c3ccc4cc(C(=O)O)c(=O)oc4c3F)cc2n1 (racemic) [Compound F53]
CC50 at 3 days [1]: 60.3 µM
EC50 (rgRSV224 virus): 36.3 nM
melting point: 175.52 °C

CCc1cc(C(=O)N2CCCCCC2C)nc2cc(-c3ccc(NC(=O)OCCO)cc3)nn12 (stereo not drawn) [Compound C6]
CC50 at 3 days [1]: > 25.1 µM
EC50 (rgRSV224 virus): 537 nM
melting point: 176 to 178 °C

CCc1cc(C(=O)N2CCCCC[C@H]2C)nc2cc(-c3ccc(C4CC=C(C(=O)O)CC4)cc3F)nn12 (mixture of isomers) [Compound F69]
CC50 at 3 days [1]: > 25.1 µM
EC50 (rgRSV224 virus): 195 nM
melting point: 176.26 °C

CCc1cc(C(=O)N2Cc3ccccc3CC2C)nc2cc(-c3ccc(C(=O)O)cc3F)nn12 (stereo not drawn) [Compound K3]
CC50 at 3 days [1]: > 25.1 µM
EC50 (rgRSV224 virus): 1100 nM
melting point: 150 to 155 °C

C[C@@H]1c2ccccc2CCN1C(=O)c1cc(C2(C)CC2)n2nc(-c3ccc(-n4cc(C(=O)O)cn4)cc3F)cc2n1 [Compound W26]
CC50 at 3 days [1]: > 100 µM
EC50 (rgRSV224 virus): 23.4 nM
melting point: 238.58 °C

CCc1cc(C(=O)N2CCCCCC2C)nc2cc(-c3cc4cccnc4cc3F)nn12 (stereo not drawn) [Compound A24]
CC50 at 3 days [1]: > 25.1 µM
EC50 (rgRSV224 virus): 302 nM
melting point: 145 to 150 °C

CNc1cc(C(=O)N2CCCCCC2C)nc2cc(-c3ccc(C(N)=O)cc3F)nn12 (stereo not drawn) [Compound I29]
CC50 at 3 days [1]: > 25.1 µM
EC50 (rgRSV224 virus): 295 nM
melting point: 179 to 181 °C

CCc1cc(C(=O)N2CCCCC[C@H]2C)nc2cc(-c3ccc(-c4ccc(C(=O)O)cn4)cc3F)nn12 [Compound F15]
CC50 at 3 days [1]: > 25.1 µM
EC50 (rgRSV224 virus): 120 nM
melting point: 181 to 182 °C

CCc1cc(C(=O)N2CCCCCC2C)nc2cc(-c3ccc(C(N)=O)cc3)nn12 (stereo not drawn) [Compound A25]
CC50 at 3 days [1]: > 100 µM
EC50 (rgRSV224 virus): 550 nM
melting point: 155 to 160 °C

CCCC(=O)Nc1ccc(-c2cc3nc(C(=O)N4CCCCCC4C)cc(CC)n3n2)c(F)c1 (stereo not drawn) [Compound E4]
CC50 at 3 days [1]: > 25.1 µM
EC50 (rgRSV224 virus): 182 nM
melting point: 175 to 180 °C

CCc1cc(C(=O)N2CCCCCC2C)nc2cc(-c3ccc(NC(=O)Cc4ccncc4)cc3F)nn12 (stereo not drawn) [Compound E2]
CC50 at 3 days [1]: > 25.1 µM
EC50 (rgRSV224 virus): 93.3 nM
melting point: 195 to 200 °C

CCc1cc(C(=O)N2CCCCCC2C)nc2cc(-c3ccc(NC(=O)Cc4ccncc4)cc3)nn12 (stereo not drawn) [Compound E23]
CC50 at 3 days [1]: > 25.1 µM
EC50 (rgRSV224 virus): 646 nM
melting point: 232 to 234 °C

C[C@@H]1CCCCCN1C(=O)c1cc(C2(C)CC2)n2nc(-c3ccc(OCC(=O)O)cc3F)cc2n1 (racemic) [Compound F48]
CC50 at 3 days [1]: > 100 µM
EC50 (rgRSV224 virus): 437 nM
melting point: 204.93 °C

CCc1cc(C(=O)N2CCCCCC2C)nc2cc(-c3ccc(S(N)(=O)=O)cc3F)nn12 (stereo not drawn) [Compound P2]
CC50 at 3 days [1]: > 25.1 µM
EC50 (rgRSV224 virus): 646 nM
melting point: 229 °C

CCc1cc(C(=O)N2CCCCCC2C)nc2cc(-c3ccc(NC(=O)CCC(=O)NC)cc3)nn12 (stereo not drawn) [Compound E29]
CC50 at 3 days [1]: > 25.1 µM
EC50 (rgRSV224 virus): 457 nM
melting point: 204 to 205 °C

CCc1cc(C(=O)N2CCCCCC2C)nc2cc(-c3ccc(-c4cccnc4)cc3F)nn12 (stereo not drawn) [Compound F4]
CC50 at 3 days [1]: > 25.1 µM
EC50 (rgRSV224 virus): 724 nM
melting point: 167 to 168 °C

CCc1cc(C(=O)N2CCc3c([nH]c4ccccc34)C2C)nc2cc(-c3ccc(C(N)=O)cc3F)nn12 (stereo not drawn) [Compound I38]
CC50 at 3 days [1]: > 25.1 µM
EC50 (rgRSV224 virus): 1780 nM
melting point: 205 to 210 °C

CCc1cc(C(=O)N2CCCCCC2C)nc2nc(-c3ccc(NC(=O)NCC4CCCO4)cc3F)nn12 (stereo not drawn) [Compound U1]
CC50 at 3 days [1]: > 100 µM
EC50 (rgRSV224 virus): 525 nM
melting point: 185 to 190 °C

CCc1cc(C(=O)N2CCCCCC2C)nc2cc(-c3ccc(N/C(=N/C#N)NCC4CCCO4)cc3F)nn12 (stereo not drawn) [Compound B16]
CC50 at 3 days [1]: > 25.1 µM
EC50 (rgRSV224 virus): 589 nM
melting point: 160 to 165 °C

CCc1cc(C(=O)N2CCCCCC2C)nc2cc(-c3c(F)cc(C(N)=O)cc3F)nn12 (stereo not drawn) [Compound I27]
CC50 at 3 days [1]: > 25.1 µM
EC50 (rgRSV224 virus): 251 nM
melting point: 160 to 165 °C

CCc1cc(C(=O)N2CCCCCC2C)nc2cc(-c3ccc(/C=C/C(=O)O)cc3F)nn12 (stereo not drawn) [Compound M1]
CC50 at 3 days [1]: > 25.1 µM
EC50 (rgRSV224 virus): 174 nM
melting point: 205 to 210 °C

CCc1cc(C(=O)N2CCc3sccc3C2C)nc2cc(-c3ccc(N4CC[C@H](C(=O)O)C4)cc3F)nn12 (single isomer, unassigned) [Compound W43]
CC50 at 3 days [1]: 49 µM
EC50 (rgRSV224 virus): 2.75 nM
melting point: 252.56 °C

CCc1cc(C(=O)N2CCCCC[C@H]2C)nc2cc(-c3ccc(C(=O)O)cc3F)nn12 [Compound K5]
CC50 at 3 days [1]: > 25.1 µM
EC50 (rgRSV224 virus): 309 nM
melting point: 148 °C

CCc1cc(C(=O)N2CCCCCC2C)nc2cc(-c3ccc(-c4ccn[nH]4)cc3F)nn12 (stereo not drawn) [Compound F5]
CC50 at 3 days [1]: > 25.1 µM
EC50 (rgRSV224 virus): 309 nM
melting point: 75 to 76 °C

C[C@@H]1CCCCCN1C(=O)c1cc(C2CCC2)n2nc(-c3ccc4c(c3F)OCC(C(=O)O)=C4)cc2n1 [Compound F39]
CC50 at 3 days [1]: 44.7 µM
EC50 (rgRSV224 virus): 38.9 nM
melting point: 230.94 °C

C[C@@H]1CCCCCN1C(=O)c1cc(C2CC2)n2nc(-c3ccc(-n4cc(C(=O)O)cn4)cc3F)cc2n1 [Compound W8]
CC50 at 3 days [1]: 55 µM
EC50 (rgRSV224 virus): 77.6 nM
melting point: 232.32 °C

CCc1cc(C(=O)N2CCCCCC2C)nc2cc(-c3ccc(-c4cncc(F)c4)cc3F)nn12 (stereo not drawn) [Compound F7]
CC50 at 3 days [1]: > 25.1 µM
EC50 (rgRSV224 virus): 2090 nM
melting point: 95 to 96 °C

C[C@@H]1c2ccccc2CCN1C(=O)c1cc(C2CC2)n2nc(-c3ccc(-n4cc(C(=O)O)cn4)cc3F)cc2n1 [Compound W33]
CC50 at 3 days [1]: 57.5 µM
EC50 (rgRSV224 virus): 16.2 nM
melting point: 257.75 °C

CCc1cc(C(=O)N2CCCCCC2C)nc2cc(-c3ccc(-c4ccc(C(=O)O)cn4)cc3F)nn12 (stereo not drawn) [Compound F14]
CC50 at 3 days [1]: > 25.1 µM
EC50 (rgRSV224 virus): 182 nM
melting point: 245 to 250 °C

CCc1cc(C(=O)N2CCCCCC2C)nc2cc(-c3ccc(-c4cccnc4F)cc3F)nn12 (stereo not drawn) [Compound F8]
CC50 at 3 days [1]: > 25.1 µM
EC50 (rgRSV224 virus): 2340 nM
melting point: 86 to 87 °C

CCc1cc(C(=O)N2CCCCCC2C)nc2cc(-c3ccc(-c4ncc(C)cn4)cc3F)nn12 (stereo not drawn) [Compound F17]
CC50 at 3 days [1]: > 25.1 µM
EC50 (rgRSV224 virus): 646 nM
melting point: 140 to 145 °C

CC1CCCCCN1C(=O)c1cc(N2CCCC2)n2nc(-c3ccc(NC(=O)C4CC4)cc3)cc2n1 (stereo not drawn) [Compound E17]
CC50 at 3 days [1]: > 50.1 µM
EC50 (rgRSV224 virus): 513 nM
melting point: 282 to 284 °C

CCc1cc(C(=O)N2CCCCCC2C)nc2cc(-c3ccc(NC(=O)CC#N)cc3F)nn12 (stereo not drawn) [Compound E6]
CC50 at 3 days [1]: > 25.1 µM
EC50 (rgRSV224 virus): 166 nM
melting point: 245 to 250 °C

CCc1cc(C(=O)N2CCCCCC2C)nc2cc(-c3ccc(NC(=O)Nc4cccc(F)c4)cc3)nn12 (stereo not drawn) [Compound B6]
CC50 at 3 days [1]: > 100 µM
EC50 (rgRSV224 virus): 741 nM
melting point: 260 to 265 °C
